Source: patent US7112581B2, “Macrocyclic lactams” (Nereus Pharmaceuticals, Inc., priority 2002, dated 2006)
Values joined by “and” are separate entries in the source; they are usually repeats but may differ in a detail not shown here. Equal entries are not always repeated. Where two headings read alike, the source gives them in different places.

Legend:
[1] = system: Staphylococcus aureus, methicillin resistant (MRSA) ATCC 605000; assay: antimicrobial resazurin growth assay, MRSA; type: cell-based; conditions: 37° C., 4 to 6 hours
Experimental: (§1) The biological characteristics of compound of Formula (I) were evaluated in Escherichia coli ATCC 610100, Pseudomonas aeruginosa ATCC 614000, Haemophilus influenzae A21515, Staphylococcus aureus, methicillin resistant (MRSA) ATCC 605000, Enterococcus faecalis ATCC 662000, Streptococcus pneumoniae ATCC 661100 and Candida glabrata ATCC 200918. All cultures were maintained in Brain Heart Infusion Medium (Oxoid), except C. glabrata, which was maintained in Potato Dextrose Broth (Difco).
(§2) For antimicrobial assays of E. coli, P. aeruginosa, H. influenzae, MRSA, E. faecalis and S. pneumoniae, the cells in Brain Heart Infusion Medium were added to 96 well plates at a volume of 176 μl/well. The compound to be tested was added to the wells (20 μl/well) together with 10 μl of 0.2 mg/ml resazurin (Sigma). The plates were incubated at 37° C. for 4 to 6 hours. The growth of the cultures was monitored by measuring the fluorescence of the plates using a fluorometer with λex=535 nm and λem=590 nm filters. Resazurin dye without cells was used to determine the background, which was subtracted from the data for all experimental wells. The data were analyzed using Prism software (GraphPad Software). The data were normalized to the average of the cells treated with media only (100% cell growth) and the IC50 values were determined using a standard sigmoidal dose response curve fitting algorithm.

[2] = system: Pseudomonas aeruginosa 27853; assay: susceptibility assay by broth microdilution (NCCLS), P. aeruginosa; type: cell-based; conditions: Pseudomona aeruginosa 27853
Experimental: (§3) The anti-infective potential of the compound was re-evaluated in susceptibility assays performed by broth microdilution in accordance with National Committee for Clinical Laboratory Standards (NCCLS) guidelines, M7-A5, January 2000. The compound was tested versus the following microorganisms: Staphylococcus aureus (MSSA), Staphylococcus aureus (MRSA), Streptococcus pneumoniae, vancomycin-sensitive Enterococcus faecalis, Haemophilus influenzae, Pseudomonas aeruginosa and Candida albicans.

Candida albicans 90028 = assay: susceptibility assay by broth microdilution (NCCLS), C. albicans; type: cell-based
Experimental: as §3

[3] = system: Streptococcus pneumoniae ATCC 661100; assay: antimicrobial resazurin growth assay, S. pneumoniae; type: cell-based; conditions: ATCC661100, 37° C., 4 to 6 hours
Experimental: as §1, §2

[4] = system: Haemophilus influenzae 49766; assay: susceptibility assay by broth microdilution (NCCLS), H. influenzae; type: cell-based
Experimental: as §3

[5] = system: Staphylococcus aureus (MSSA); assay: susceptibility assay by broth microdilution (NCCLS), MSSA; type: cell-based; conditions: Staphyloccus aureus MSSA
Experimental: as §3

[6] = system: Staphylococcus aureus (MRSA); assay: susceptibility assay by broth microdilution (NCCLS), MRSA; type: cell-based; conditions: Staphyloccus aureus MRSA
Experimental: as §3

[7] = system: Streptococcus pneumoniae 49619; assay: susceptibility assay by broth microdilution (NCCLS), S. pneumoniae; type: cell-based
Experimental: as §3

[8] = system: vancomycin-sensitive Enterococcus faecalis; assay: susceptibility assay by broth microdilution (NCCLS), E. faecalis; type: cell-based; conditions: Enterococcus faecalis VSE
Experimental: as §3

Escherichia coli imp = assay: susceptibility assay by broth microdilution (NCCLS), E. coli; type: cell-based
[9] = system: B16-F10 (ATCC CRL-6475) mouse melanoma; assay: tumor cytotoxicity assay (resazurin), B16-F10; type: cell-based
Experimental: B16-F10 (ATCC CRL-6475) a mouse melanoma was maintained in complete DMEM (DMEM supplemented with 10% FBS, 2 mM L-glutamine, 10 mM HEPES, and Pen/Strep at 100 IU/ml and 100 μg/ml, respectively). Cell lines were cultured at 37° C., 5% CO2 in a 95% humidified incubator. For tumor cytotoxicity assays HT-29, PC-3, or B16-F10 cells were seeded at 5×10^3, 5×10^3 or 1.25×10^3 cells/well cells were seeded at 5,000 cells/well in 90 μl complete media into a Corning 3904 black-walled, clear-bottom tissue culture plate and the plate were incubated overnight to allow cells to establish and enter log phase growth. […] Because living cells metabolize Resazurin, the fluorescence of the reduction product of Resazurin was measured using a Fusion microplate fluorometer (Packard Bioscience) with λex=535 nm and λem=590 nm filters. The plates were removed and resazurin fluorescence was measured using 530 nm excitation and 590 nm emission filters in a Fusion fluorimeter (Packard Instruments). […] The data were analyzed using Prism software (GraphPad Software). The data were normalized to the average of the cells treated with media only (100% cell growth) and EC50 values were determined using a standard sigmoidal dose response curve fitting algorithm.

[10] = system: PC-3 (ATCC CRL-1435) human prostate adenocarcinoma; assay: tumor cytotoxicity assay (resazurin), PC-3; type: cell-based; conditions: 48 h, read-out: EC50 for the PC3 assay
[11] = system: Enterococcus faecalis ATCC 662000; assay: antimicrobial resazurin growth assay, E. faecalis; type: cell-based; conditions: ATCC662000, 37° C., 4 to 6 hours
Experimental: as §1, §2

[12] = system: Pseudomonas aeruginosa ATCC 614000; assay: antimicrobial resazurin growth assay, P. aeruginosa; type: cell-based; conditions: ATCC614000, 37° C., 4 to 6 hours
Experimental: as §1, §2

[13] = system: Candida glabrata ATCC 200918; assay: antimicrobial resazurin growth assay, C. glabrata; type: cell-based; conditions: Nakaseomyces glabratus, ATCC200918; Potato Dextrose medium
[14] = system: Escherichia coli ATCC 610100; assay: antimicrobial resazurin growth assay, E. coli; type: cell-based; conditions: ATCC610100, 37° C., 4 to 6 hours
Experimental: as §1, §2

[15] = system: HT-29 (ATCC HTB-38) human colorectal adenocarcinoma; assay: tumor cytotoxicity assay (resazurin), HT-29; type: cell-based; conditions: HT-29, 48 h
Experimental: HT-29 (ATCC HTB-38) a human colorectal adenocarcinoma was maintained in McCoy's complete medium (McCoy's 5A medium with L-glutamine and 25 mM HEPES supplemented with 10% FBS, 1 mM Na pyruvate, 1X NEAA, 2 mM L-glutamine, and Pen/Strep at 100 IU/ml and 100 μg/ml, respectively). Cell lines were cultured at 37° C., 5% CO2 in a 95% humidified incubator. For tumor cytotoxicity assays HT-29, PC-3, or B16-F10 cells were seeded at 5×10^3, 5×10^3 or 1.25×10^3 cells/well cells were seeded at 5,000 cells/well in 90 μl complete media into a Corning 3904 black-walled, clear-bottom tissue culture plate and the plate were incubated overnight to allow cells to establish and enter log phase growth. Jurkat cells were seeded on the day of compound addition at 2×10^4 cells/well in 90 μl complete media into a Corning 3904 black-walled, clear-bottom tissue culture plate. 20 mM stock solutions of the compound of Formula (I) were prepared in 100% DMSO and stored at −20° C. 10×concentrated serial dilutions of the compounds were prepared in appropriate culture medium for final concentrations ranging from 2×10–5 to 2×10–12. Ten μl volumes of the 10×serial dilutions were added to the test wells in triplicate and the plates returned to the incubator for 48 hours. The final concentration of DMSO was 0.25% in all samples. […] Because living cells metabolize Resazurin, the fluorescence of the reduction product of Resazurin was measured using a Fusion microplate fluorometer (Packard Bioscience) with λex=535 nm and λem=590 nm filters. The plates were removed and resazurin fluorescence was measured using 530 nm excitation and 590 nm emission filters in a Fusion fluorimeter (Packard Instruments). […] The data were analyzed using Prism software (GraphPad Software). The data were normalized to the average of the cells treated with media only (100% cell growth) and EC50 values were determined using a standard sigmoidal dose response curve fitting algorithm.

[16] = system: Haemophilus influenzae A21515; assay: antimicrobial resazurin growth assay, H. influenzae; type: cell-based; conditions: 37° C., 4 to 6 hours
Experimental: as §1, §2

[17] = system: Jurkat (ATCC TIB-152) human acute T cell leukemia; assay: tumor cytotoxicity assay (resazurin), Jurkat; type: cell-based
Experimental: Jurkat (ATCC TIB-152) a human acute T cell leukemia was maintained in RPMI complete medium (RPMI 1640 medium supplemented with 10% FBS, 2 mM L-glutamine, 10 mM HEPES, 1 mM Na pyruvate, 1X NEAA, and Pen/Strep at 100 IU/ml and 100 μg/ml, respectively). Cell lines were cultured at 37° C., 5% CO2 in a 95% humidified incubator. For tumor cytotoxicity assays HT-29, PC-3, or B16-F10 cells were seeded at 5×10^3, 5×10^3 or 1.25×10^3 cells/well cells were seeded at 5,000 cells/well in 90 μl complete media into a Corning 3904 black-walled, clear-bottom tissue culture plate and the plate were incubated overnight to allow cells to establish and enter log phase growth. […] Because living cells metabolize Resazurin, the fluorescence of the reduction product of Resazurin was measured using a Fusion microplate fluorometer (Packard Bioscience) with λex=535 nm and λem=590 nm filters. The plates were removed and resazurin fluorescence was measured using 530 nm excitation and 590 nm emission filters in a Fusion fluorimeter (Packard Instruments). […] The data were analyzed using Prism software (GraphPad Software). The data were normalized to the average of the cells treated with media only (100% cell growth) and EC50 values were determined using a standard sigmoidal dose response curve fitting algorithm.

solubility (observation) = type: physicochemical

SMILES: CCC/C=C/CC1C/C=C/C=C(C)/C=C/C=C\C(O)CC(O)C(O)/C=C/C=C/C=C/C(=O)N1 (stereo not drawn) [compound of Formula (I)]
- IC50 [1]: 1 µg/mL and 2.2 µM
- MLC [2]: >32 µg/mL
- MIC ([2]; Pseudomonas aeruginosa): > 32 µg/mL
- MIC (Candida albicans 90028): > 32 µg/mL
- MLC (Candida albicans 90028): >32 µg/mL
- IC50 [3]: 4 µg/mL and 8.8 µM
- MIC [4]: > 32 µg/mL
- MLC [4]: >32 µg/mL
- MLC [5]: >32 µg/mL
- MIC ([5]; Staphylococcus aureus): > 32 µg/mL
- MLC [6]: >32 µg/mL
- MIC ([6]; Staphylococcus aureus): 12 µg/mL
- MIC [7]: 32 µg/mL
- MLC [7]: >32 µg/mL
- MIC [8]: 32 µg/mL
- MLC [8]: >32 µg/mL
- MIC (Escherichia coli imp; Escherichia coli): > 32 µg/mL
- MLC (Escherichia coli imp; Escherichia coli imp): >32 µg/mL
- EC50 ([9]; further evaluation (Table 2), 48 hours, read-out: B16-F10 EC50): 2160 ± 870 nM
- EC50 ([9]; one set of evaluations, unit inferred, read-out: EC50 for the B16-F10 cells): 2160 ± 870 nM
- EC50 ([10]; compound alone): 1.29 µg/mL and 2.84 µM
- EC50 ([10]; compound with TNF-α): 0.988 µg/mL and 2.18 µM
- IC50 [11]: 3 µg/mL and 6.6 µM
- IC50 [12]: > 4 µg/mL
- IC50 [13]: 3 µg/mL and 6.6 µM
- IC50 [14]: > 4 µg/mL
- EC50 ([15]; compound alone, read-out: EC50 in the HT-29 assay): 0.922 µg/mL and 2.03 µM
- EC50 ([15]; compound with interferon, read-out: EC50 in the HT-29 assay): 0.263 µg/mL and 580 nM
- EC50 ([15]; further evaluation (Table 2), read-out: HT-29 EC50): 3620 ± 2570 nM
- IC50 [16]: > 4 µg/mL
- EC50 ([17]; further evaluation (Table 2), 48 hours, read-out: Jurkat EC50): 2330 ± 1110 nM
- EC50 ([17]; one set of evaluations, unit inferred, read-out: EC50 for the Jurkat cells): 2330 ± 1110 nM
- solubility (solubility (observation)): substantially insoluble
